According to patent US8440612B2, “Controlling giardiosis” (Bayer Intellectual Property GmbH, priority 2008, dated 2013):
Several values for one entry are separate records, joined by “and”; a condition that tells them apart may be missing. Identical values can stand only once.

What was measured:
Giardia duodenalis [1] = experiment: Giardia cyst excretion in infected Beagle puppies, single oral dose (Biological Example 1); assay type: in vivo
Text: Beagle puppies aged 10-11 weeks which had 11 days to settle in the animal centre before being infected were infected orally with 50 000 Giardia duodenalis cysts. The cysts for the infection were obtained with the aid of a sucrose gradient from the faeces of dogs which excreted Giardia cysts and stored at 4 degrees centigrade in Bacto-Casitone medium for no longer than 2 weeks. From day 10 after the infection, the puppies were kept in individual cages in order to collect the daily total faeces for each individual. The quantitative determination of the cyst excretion was performed in the 4 days prior to treatment (day −3 to 0), and the puppies were divided randomly into two groups, taking into consideration the cyst excretion. […] The quantitative determination of the cyst excretion was continued from day 1 to day 8 after the treatment.
Results: The activity was calculated using the following formula:
(§1) Method: The quantitative determination of the cyst excretion was performed using a modified version of Hewlett (18): 4 g faeces were dissolved in 100 ml of water, sieved and allowed to sediment. The sediment was applied to a 1 M sucrose gradient (specific gravity 1.13), and the cysts, which were concentrated at the sucrose/water boundary layer after the centrifugation were pipetted off. After a wash step followed by centrifugation, the cysts in the pellet were counted. To this end, an aliquot of the pellet was counted under the microscope, and the number of cysts per g faeces was calculated.

Giardia duodenalis [2] = experiment: Giardia cyst excretion in infected Beagle puppies, oral dose on three successive days (Biological Example 2); assay type: in vivo
Procedure: as §1
Beagle puppies aged 11-15 weeks which had at least 2 weeks to settle in the animal centre before being infected were infected orally with 50 000 Giardia duodenalis cysts before the beginning of the study. The cysts for the infection were obtained with the aid of a sucrose gradient from the faeces of dogs which excreted Giardia cysts and stored at 4 degrees centigrade in Bacto-Casitone medium for no longer than 2 weeks. 18 puppies which excreted Giardia cysts were included in the study and kept in individual cages in order to collect the daily total faeces. The quantitative determination of the cyst excretion was performed as an […], with the modification that the aliquot of the pellet was counted under the microscope with the aid of a Fuchs-Rosenthal hematocytometer. The quantitative determination of the cyst excretion was performed for 4 days before the treatment (day −3 to 0), and the puppies were divided randomly into three groups, taking into consideration the cyst excretion. […] The 6 dogs of the control group remained untreated. The quantitative determination of the cyst excretion was continued from day 1 to day 8 after the treatment.

Compound: CC1CS(=O)(=O)CCN1N=Cc1ccc([N+](=O)[O-])o1 (stereo not shown) [nifurtimox]
- Activity (Giardia duodenalis [1]; calculated activity on cyst excretion versus infected untreated control, day 1 to 8, single oral dose 50 mg/kg, 50 mg/kg): 90.4%
- Σ Giardia cyst excretion D1 (Giardia duodenalis [1]; group line Σ (7 dogs), day 1 after treatment, 50 mg/kg oral on day D0): 1516 cysts per g faeces
- Σ Giardia cyst excretion D2 (Giardia duodenalis [1]; group line Σ (7 dogs), day 2 after treatment, 50 mg/kg oral on day D0): 26 cysts per g faeces
- Σ Giardia cyst excretion D3 (Giardia duodenalis [1]; group line Σ (7 dogs), day 3 after treatment, 50 mg/kg oral on day D0): 32 cysts per g faeces
- Σ Giardia cyst excretion D4 (Giardia duodenalis [1]; group line Σ (7 dogs), day 4 after treatment, 50 mg/kg oral on day D0): 473 cysts per g faeces
- Σ Giardia cyst excretion D5 (Giardia duodenalis [1]; group line Σ (7 dogs), day 5 after treatment, 50 mg/kg oral on day D0): 629 cysts per g faeces
- Σ Giardia cyst excretion D6 (Giardia duodenalis [1]; group line Σ (7 dogs), day 6 after treatment, 50 mg/kg oral on day D0): 2523 cysts per g faeces
- Σ Giardia cyst excretion D7 (Giardia duodenalis [1]; group line Σ (7 dogs), day 7 after treatment, 50 mg/kg oral on day D0): 2403 cysts per g faeces
- Σ Giardia cyst excretion D8 (Giardia duodenalis [1]; group line Σ (7 dogs), day 8 after treatment, 50 mg/kg oral on day D0): 3127 cysts per g faeces
- Σ Giardia cyst excretion D0 (Giardia duodenalis [1]; group line Σ (7 dogs), day of treatment, 50 mg/kg oral on day D0): 8996 cysts per g faeces
- Σ Giardia cyst excretion D−1 (Giardia duodenalis [1]; group line Σ (7 dogs), day −1, before treatment, 50 mg/kg oral on day D0): 39966 cysts per g faeces
- Σ Giardia cyst excretion D−2 (Giardia duodenalis [1]; group line Σ (7 dogs), day −2, before treatment, 50 mg/kg oral on day D0): 38482 cysts per g faeces
- Σ Giardia cyst excretion D−3 (Giardia duodenalis [1]; group line Σ (7 dogs), day −3, before treatment, 50 mg/kg oral on day D0): 9762 cysts per g faeces
- Σ Giardia cyst excretion Day 1 to 8 (Giardia duodenalis [1]; group, after treatment, 50 mg/kg oral once on day 0): 1341 cysts per g faeces
- Σ Giardia cyst excretion Day −3 to 0 (Giardia duodenalis [1]; group, before treatment, 50 mg/kg oral once on day 0): 24302 cysts per g faeces
- Giardia cyst excretion D1 (Giardia duodenalis [1]; individual dogs, day 1 after treatment, 50 mg/kg oral on day D0, 50 mg/kg): 504 cysts per g faeces and 4928 cysts per g faeces and 152 cysts per g faeces and 0 cysts per g faeces (2×) and 2636 cysts per g faeces and 2391 cysts per g faeces
- Giardia cyst excretion D2 (Giardia duodenalis [1]; individual dogs, day 2 after treatment, 50 mg/kg oral on day D0, 50 mg/kg): 0 cysts per g faeces (6×) and 180 cysts per g faeces
- Giardia cyst excretion D3 (Giardia duodenalis [1]; individual dogs, day 3 after treatment, 50 mg/kg oral on day D0, 50 mg/kg): 0 cysts per g faeces (6×) and 224 cysts per g faeces
- Giardia cyst excretion D4 (Giardia duodenalis [1]; individual dogs, day 4 after treatment, 50 mg/kg oral on day D0, 50 mg/kg): 590 cysts per g faeces and 0 cysts per g faeces (2×) and 652 cysts per g faeces and 424 cysts per g faeces and 1451 cysts per g faeces and 193 cysts per g faeces
- Giardia cyst excretion D5 (Giardia duodenalis [1]; individual dogs, day 5 after treatment, 50 mg/kg oral on day D0, 50 mg/kg): 1700 cysts per g faeces and 1094 cysts per g faeces and 0 cysts per g faeces (2×) and 137 cysts per g faeces and 1318 cysts per g faeces and 153 cysts per g faeces
- Giardia cyst excretion D6 (Giardia duodenalis [1]; individual dogs, day 6 after treatment, 50 mg/kg oral on day D0, 50 mg/kg): 3693 cysts per g faeces and 2000 cysts per g faeces and 1201 cysts per g faeces and 353 cysts per g faeces and 0 cysts per g faeces and 4102 cysts per g faeces and 6315 cysts per g faeces
- Giardia cyst excretion D7 (Giardia duodenalis [1]; individual dogs, day 7 after treatment, 50 mg/kg oral on day D0, 50 mg/kg): 8881 cysts per g faeces and 431 cysts per g faeces and 1873 cysts per g faeces and 608 cysts per g faeces and 191 cysts per g faeces and 4615 cysts per g faeces and 223 cysts per g faeces
- Giardia cyst excretion D8 (Giardia duodenalis [1]; individual dogs, day 8 after treatment, 50 mg/kg oral on day D0, 50 mg/kg): 3294 cysts per g faeces and 517 cysts per g faeces and 14181 cysts per g faeces and 0 cysts per g faeces and 1621 cysts per g faeces and 1768 cysts per g faeces and 508 cysts per g faeces
- Giardia cyst excretion D0 (Giardia duodenalis [1]; individual dogs, day of treatment, 50 mg/kg oral on day D0, 50 mg/kg): 4397 cysts per g faeces and 8456 cysts per g faeces and 0 cysts per g faeces and 375 cysts per g faeces and 19681 cysts per g faeces and 16419 cysts per g faeces and 13644 cysts per g faeces
- Giardia cyst excretion D−1 (Giardia duodenalis [1]; individual dogs, day −1, before treatment, 50 mg/kg oral on day D0, 50 mg/kg): 1306 cysts per g faeces and 14238 cysts per g faeces and 2264 cysts per g faeces and 788 cysts per g faeces and 189275 cysts per g faeces and 45725 cysts per g faeces and 26163 cysts per g faeces
- Giardia cyst excretion D−2 (Giardia duodenalis [1]; individual dogs, day −2, before treatment, 50 mg/kg oral on day D0, 50 mg/kg): 907 cysts per g faeces and 923 cysts per g faeces and 5897 cysts per g faeces and 905 cysts per g faeces and 186750 cysts per g faeces and 45672 cysts per g faeces and 28322 cysts per g faeces
- Activity (Giardia duodenalis [2]; calculated activity on cyst excretion versus infected untreated control, day 3 to 8, 50 mg/kg oral on days 0, 1 and 2, 50 mg/kg): 98.6%
- Σ Giardia cyst excretion D0 (Giardia duodenalis [2]; group line Σ (6 dogs), D0, day of treatment, 50 mg/kg oral on days D0, D1 and D2): 61098 cysts per g faeces
- Σ Giardia cyst excretion D1 (Giardia duodenalis [2]; group line Σ (6 dogs), D1, day of treatment, 50 mg/kg oral on days D0, D1 and D2): 872 cysts per g faeces
- Σ Giardia cyst excretion D2 (Giardia duodenalis [2]; group line Σ (6 dogs), D2, day of treatment, 50 mg/kg oral on days D0, D1 and D2): 211 cysts per g faeces
- Σ Giardia cyst excretion D3 (Giardia duodenalis [2]; group line Σ (6 dogs), D3, after the treatment, 50 mg/kg oral on days D0, D1 and D2): 0 cysts per g faeces
- Σ Giardia cyst excretion D4 (Giardia duodenalis [2]; group line Σ (6 dogs), D4, after the treatment, 50 mg/kg oral on days D0, D1 and D2): 135 cysts per g faeces
- Σ Giardia cyst excretion D5 (Giardia duodenalis [2]; group line Σ (6 dogs), D5, after the treatment, 50 mg/kg oral on days D0, D1 and D2): 638 cysts per g faeces
- Σ Giardia cyst excretion D6 (Giardia duodenalis [2]; group line Σ (6 dogs), D6, after the treatment, 50 mg/kg oral on days D0, D1 and D2): 339 cysts per g faeces
- Σ Giardia cyst excretion D7 (Giardia duodenalis [2]; group line Σ (6 dogs), D7, after the treatment, 50 mg/kg oral on days D0, D1 and D2): 54 cysts per g faeces
- Σ Giardia cyst excretion D8 (Giardia duodenalis [2]; group line Σ (6 dogs), D8, after the treatment, 50 mg/kg oral on days D0, D1 and D2): 399 cysts per g faeces
- Σ Giardia cyst excretion D−1 (Giardia duodenalis [2]; group line Σ (6 dogs), day −1, before treatment, 50 mg/kg oral on days D0, D1 and D2): 37547 cysts per g faeces
- Σ Giardia cyst excretion D−2 (Giardia duodenalis [2]; group line Σ (6 dogs), day −2, before treatment, 50 mg/kg oral on days D0, D1 and D2): 28220 cysts per g faeces
- Σ Giardia cyst excretion D−3 (Giardia duodenalis [2]; group line Σ (6 dogs), day −3, before treatment, 50 mg/kg oral on days D0, D1 and D2): 49751 cysts per g faeces
- Σ Giardia cyst excretion Day 3 to 8 (Giardia duodenalis [2]; group, after treatment, 50 mg/kg oral on days 0, 1 and 2): 261 cysts per g faeces
- Σ Giardia cyst excretion Day: −3 to 0 (Giardia duodenalis [2]; group, before treatment, 50 mg/kg oral on days 0, 1 and 2): 44154 cysts per g faeces
- Giardia cyst excretion D0 (Giardia duodenalis [2]; individual dogs, D0, day of treatment, 50 mg/kg oral on days D0, D1 and D2, 50 mg/kg): 60420 cysts per g faeces and 675 cysts per g faeces and 89880 cysts per g faeces and 86 cysts per g faeces and 103442 cysts per g faeces and 112084 cysts per g faeces
- Giardia cyst excretion D1 (Giardia duodenalis [2]; individual dogs, D1, day of treatment, 50 mg/kg oral on days D0, D1 and D2, 50 mg/kg): 809 cysts per g faeces and 187 cysts per g faeces and 974 cysts per g faeces and 0 cysts per g faeces and 1261 cysts per g faeces and 2000 cysts per g faeces
- Giardia cyst excretion D2 (Giardia duodenalis [2]; individual dogs, D2, day of treatment, 50 mg/kg oral on days D0, D1 and D2, 50 mg/kg): 741 cysts per g faeces and 0 cysts per g faeces (4×) and 527 cysts per g faeces
- Giardia cyst excretion D3 (Giardia duodenalis [2]; individual dogs, D3, after the treatment, 50 mg/kg oral on days D0, D1 and D2): 0 cysts per g faeces
- Giardia cyst excretion D4 (Giardia duodenalis [2]; individual dogs, D4, after the treatment, 50 mg/kg oral on days D0, D1 and D2, 50 mg/kg): 0 cysts per g faeces (4×) and 185 cysts per g faeces and 622 cysts per g faeces
- Giardia cyst excretion D5 (Giardia duodenalis [2]; individual dogs, D5, after the treatment, 50 mg/kg oral on days D0, D1 and D2, 50 mg/kg): 229 cysts per g faeces and 0 cysts per g faeces (3×) and 2299 cysts per g faeces and 1299 cysts per g faeces
- Giardia cyst excretion D6 (Giardia duodenalis [2]; individual dogs, D6, after the treatment, 50 mg/kg oral on days D0, D1 and D2, 50 mg/kg): 0 cysts per g faeces (3×) and 98 cysts per g faeces and 1842 cysts per g faeces and 93 cysts per g faeces
- Giardia cyst excretion D7 (Giardia duodenalis [2]; individual dogs, D7, after the treatment, 50 mg/kg oral on days D0, D1 and D2, 50 mg/kg): 0 cysts per g faeces (4×) and 87 cysts per g faeces and 237 cysts per g faeces
- Giardia cyst excretion D8 (Giardia duodenalis [2]; individual dogs, D8, after the treatment, 50 mg/kg oral on days D0, D1 and D2, 50 mg/kg): 517 cysts per g faeces and 0 cysts per g faeces (3×) and 975 cysts per g faeces and 903 cysts per g faeces
- Giardia cyst excretion D−1 (Giardia duodenalis [2]; individual dogs, day −1, before treatment, 50 mg/kg oral on days D0, D1 and D2, 50 mg/kg): 25515 cysts per g faeces and 3472 cysts per g faeces and 37203 cysts per g faeces and 8528 cysts per g faeces and 91293 cysts per g faeces and 59273 cysts per g faeces
- Giardia cyst excretion D−2 (Giardia duodenalis [2]; individual dogs, day −2, before treatment, 50 mg/kg oral on days D0, D1 and D2, 50 mg/kg): 10685 cysts per g faeces and 8278 cysts per g faeces and 1618 cysts per g faeces and 133 cysts per g faeces and 79689 cysts per g faeces and 68914 cysts per g faeces
